Measured values taken from ChEMBL document CHEMBL1144152, “Oceanapiside, an antifungal bis-alpha,omega-amino alcohol glycoside from the marine sponge Oceanapia phillipensis” (1999).
Converted amounts (≈) assume the structure as drawn. The source made the active and inactive calls. The calls are words filed in the database; no cut-off is given here.

Legend:
[1] = system: Nakaseomyces glabratus; experiment: Antifungal activity against fluconazole-resistant Candida glabrata by broth dilution method; assay type: functional
[2] = system: Candida albicans; experiment: Antifungal activity against fluconazole-resistant Candida albicans UCD-FR1; assay type: functional, organism-based
[3] = system: Candida albicans; experiment: Antifungal activity against Candida albicans ATCC 14503; assay type: functional, organism-based
[4] = system: Pichia kudriavzevii; experiment: Antifungal activity against Candida krusei; assay type: functional, organism-based
[5] = system: Candida albicans; experiment: Antifungal activity against fluconazole-resistant Candida albicans 96-489; assay type: functional, organism-based

| Compound | MIC [1] | Activity [2] | Activity [3] | Activity [4] | Activity [5] |
| --- | --- | --- | --- | --- | --- |
| C[C@@H]1[C@H](O)[C@@H](C)/C=C/C=C/C=C/C=C/C=C/C=C/C=C/[C@H](O[C@@H]2O[C@H](C)[C@@H](O)[C@H](N)[C@@H]2O)C[C@@H]2O[C@](O)(C[C@@H](O)C[C@@H](O)[C@H](O)CC[C@@H](O)C[C@@H](O)CC(=O)O[C@H]1C)C[C@H](O)[C@H]2C(=O)O [AMPHOTERICIN B] | 1 µg/mL (≈ 1.08 µM) | – | – | – | – |
| C[C@@H](N)[C@H](O)CCCCCCCCCCCCCCC(=O)CCCCCCC[C@@H](O)[C@@H](N)CO | 3 µg/mL (≈ 6.16 µM) | – | – | – | – |
| C[C@@H](N)[C@H](O)CCCCCCCCCCCCCCC(=O)CCCCCCC[C@@H](O[C@@H]1O[C@H](CO)[C@@H](O)[C@H](O)[C@H]1O)[C@@H](N)CO | 10 µg/mL (≈ 15.4 µM) | inactive | inactive | inactive | inactive |
